# Reference: patent US10889566B2, “Derivatives and composition of quinoline and naphthyridine” (CHULABHORN FOUNDATION, priority 2017, dated 2021)
# Structures can show the parent of a compound that is named as a salt.
# Experiments:
# [1] = biological target: HIV-1 RT (Human immunodeficiency virus type 1 group M subtype B, UniProt P04585); experiment: In vitro HIV-1 reverse transcriptase (HIV-1 RT) kit assay; type: biochemical; conditions: for inhibition at 1 µM: read-out: Inhibition rate (%) (HIV-RT kit assay) (1 μM)
# Experimental: In Vitro HIV-1 Reverse Transcriptase (HIV-1 RT) Kit Assay
# The HIV-RT inhibition assay was performed using an RT assay kit (Roche) according to the protocol of the kit. […] After 1 h of incubation at 37° C., the reaction mixture was transferred to a streptavidine-coated microtiter plate (MTP). Biotin-labeled dNTPs were incorporated in the template, because of the activity of RT bound to steptavidine. The unbound dNTPs were washed with wash buffer, and antidigoxigenin-peroxidase (anti-DIG-POD) was added to the MTP. The digoxigenin-labeled dNTPs incorporated in the template was bound to the anti-DIG-POD antibody. The unbound anti-DIG-POD was washed, and the peroxide substrate (ABST) was added to the MTP. A colored reaction product was produced during the cleavage of the substrate catalyses with a peroxide enzyme. […] The resulting color intensity was directly proportional to the actual RT activity. The percentage inhibitory activity of the RT inhibitors was calculated by comparing it to that of the sample without an inhibitor.
# [2] = system: cholangiocarcinoma; experiment: cells; conditions: for IC50 (μg/mL) HuCCA-1: HuCCA-1 (Cholangiocarcinoma), mean ± standard error, triplicate
# Experimental: (§1) Background control wells contained the same volume of the complete culture medium. […] Samples at various concentrations were added to the microplate, which was incubated for another 48 h. Cell viability was determined by staining with MTT assay [3(4,5-dimethylthiazol-2-yl)-2-5diphenyl tetrazolium bromide (Sigma-Aldrich, St. Louis, Mo., USA)]. The reagent was dissolved in phosphate buffered saline at 5 mg/mL and filtered to sterilize and remove the small amount of insoluble residue present in some batches of MTT. […] Subsequently, dimethyl sulfoxide (Merck, Germany) (100 μL) was added to dissolve the resulting formazan by using sonication. The plates were read on a microplate reader (Molecular Devices, CA, USA). OD was measured at testing wavelength of 550 nm and reference wavelength of 650 nm.
# [3] = system: hepatocarcinoma; experiment: cells; conditions: for IC50 (μg/mL) HepG2: HepG2 (Hepatocarcinoma), mean ± standard error, triplicate; for IC50: Homo sapiens, HepG2, read-out: IC50 (μg/mL) HepG2
# Experimental: as §1
# [4] = system: lung carcinoma; experiment: cells; conditions: for IC50 (μg/mL) A549: A549 (Lung carcinoma), mean ± standard error, triplicate
# Experimental: as §1
# [5] = system: acute lymphoblastic leukemia (MOLT-3); experiment: cells; conditions: for IC50 (μg/mL) MOLT-3: MOLT-3 (Acute lymphoblastic leukemia), mean ± standard error, triplicate
# Experimental: as §1
# XTT assay (3′-[1-[(phenylamino)-carbonyl]-3,4-tetrazolium]-bis(4-methoxy-6-nitro)benzene-sulfonic acid hydrate) for suspension cells was performed for acute lymphoblastic leukemia (MOLT-3).
# [6] = system: BxPC-3 pancreatic cancer cells; conditions: read-out: in vitro EC50; cited from earlier work
SMILES,Inhibition rate (%) (HIV-RT kit assay) (1 μM) [1],IC50 (μg/mL) HuCCA-1 [2] [µg/mL],IC50 (μg/mL) HepG2 [3] [µg/mL],IC50 (μg/mL) A549 [4] [µg/mL],IC50 (μg/mL) MOLT-3 [5] [µg/mL],also measured
Cc1cc(C#N)cc(C)c1Oc1cc(Nc2ccc(C#N)cc2)nc2ccccc12 [Compound 6],47.16,≥50,≥50,≥50,19.04 ± 16.02,–
Cc1cc(C=O)cc(C)c1Oc1cc(Nc2ccc(C#N)cn2)nc2ccccc12 [Compound 4],62.23,49.5 ± 0.71,36.53 ± 4.65,42.44 ± 0.48,4.98 ± 0.43,–
"O=C1Nc2ccc(Cl)cc2[C@@](C#CC2CC2)(C(F)(F)F)O1 [EFV, efavirenz]",–,–,–,–,–,EC50 [6]: 315 µM
"COc1cc([C@@H]2c3cc4c(cc3[C@@H](O[C@@H]3O[C@@H]5CO[C@@H](C)O[C@H]5[C@H](O)[C@H]3O)[C@H]3COC(=O)[C@H]23)OCO4)cc(OC)c1O [etoposide, reference compound]",–,–,–,–,–,"IC50 [3]: 21.1 ± 0.7 µg/mL; IC50 ([5]; Homo sapiens, MOLT-3, read-out: IC50 (μg/mL) MOLT-3): 0.048 ± 0.007 µg/mL"
Cc1cc(C=O)cc(C)c1Oc1cc(Oc2c(C)cc(C=O)cc2C)c2ccccc2n1 [Compound 1],42.08,4.71 ± 0.30,21.55 ± 5.23,16.37 ± 0.56,2.62 ± 0.30,–
"COc1cccc2c1C(=O)c1c(O)c3c(c(O)c1C2=O)C[C@@](O)(C(=O)CO)C[C@@H]3O[C@H]1C[C@H](N)[C@H](O)[C@H](C)O1 [doxorubicin hydrochloride, reference compound]",–,–,–,–,–,"IC50 ([2]; Homo sapiens, HuCC-A1, read-out: IC50 (μg/mL) HuCCA-1): 0.89 ± 0.04 µg/mL; IC50 [3]: 0.23 ± 0.02 µg/mL; IC50 ([4]; Homo sapiens, A549, read-out: IC50 (μg/mL) A549): 0.19 ± 0.01 µg/mL"
N#Cc1ccc(Oc2cc(Nc3ccc(C#N)cn3)nc3ccccc23)cc1 [Compound 8],27.61,8.31 ± 0.33,39.96 ± 0.26,5.09 ± 0.81,5.12 ± 0.41,–
"Cc1cc(/C=C/C#N)cc(C)c1Nc1ccnc(Nc2ccc(C#N)cc2)n1 [TMC278, rilpivirine, reference compound]",–,–,–,–,–,inhibition at 1 µM [1]: 96.5%
Cc1cc(C#N)cc(C)c1Oc1cc(Oc2c(C)cc(C#N)cc2C)c2ccccc2n1 [Compound 5],40.31,35.02 ± 4.65,38.67 ± 2.87,23.28 ± 2.40,≥50,–
N#Cc1ccc(Nc2cc(Oc3ccc(C#N)cc3)c3ccccc3n2)cc1 [Compound 7],39.71,≥50,≥50,≥50,≥50,–
"Cc1ccnc2c1NC(=O)c1cccnc1N2C1CC1 [NVP, nevirapine, reference compound]",–,–,–,–,–,inhibition at 1 µM [1]: 55.6%
